Legend:
[1] = Population pharmacokinetic analysis of linagliptin plasma concentrations; type: in vivo, human (patients with T2DM)
[2] = not estimated, fixed to estimates of the previous model ref 15; cited from earlier work
[3] = single rising-dose study, healthy volunteers, up to a dose of 600 mg ref 5; cited from earlier work

SMILES: CC#CCn1c(N2CCC[C@@H](N)C2)nc2c1c(=O)n(Cc1nc(C)c3ccccc3n1)c(=O)n2C [linagliptin, (R)-8-(3-Amino-piperidin-1-yl)-7-but-2-ynyl-3-methyl-1-(4-methyl-quinazolin-2-ylmethyl)-3,7-dihydro-purine-2,6-dione]
- change in exposure, combination of covariate effects (largest decrease) ([1]; 5 mg, person, 117 kg, GGT 9.4 U/L, pre-dose DPP-4 activity 8,025 RFU): −26%
- increase in linagliptin exposure, impact of weight ([1]; 5th percentile of weight): 5.9%
- increase in linagliptin exposure with age ([1]; 73-year-old vs 42-year-old patient (95th and 5th percentile of age)): 13.8%
- decrease in linagliptin exposure, impact of weight ([1]; 95th percentile of weight): 8.7%
- Weight_F: percentage change in F per kg change from median weight of population ([1]; covariate effect, median weight 88 kg, final model): −0.958
- Dose_Ka: percentage change in Ka per dose unit change from the 5 mg dose group ([1]; covariate effect, final model): −6.51
- CL/F: typical clearance of the unbound concentration ([1]; final model): 258 L/h
- πF: intra-individual variability in relative bioavailability ([1]; final model): 40.0 CV %
- ωCL: inter-individual variability in clearance of the unbound concentration ([1]; final model): 27.5 CV %
- ωF: inter-individual variability in relative bioavailability ([1]; final model): 47.4 CV %
- ωKa: inter-individual variability in the absorption rate constant ([1]; final model): 76.4 CV %
- ωVC: inter-individual variability in the central volume of distribution ([1]; final model): 24.4 CV %
- Vd/F ([1]; human, in vivo): 715 L
- Ka,1: typical absorption rate constant study 1 ([1]; powder in bottle formulation, oral): 0.933 h⁻¹
- linear decrease in bioavailability for every 1 kg increase in weight ([1]; relative bioavailability, oral): 0.96%
- Ka,2: typical absorption rate constant study 2 ([1]; tablet formulation 1, oral): 0.795 h⁻¹
- Ka,3: typical absorption rate constant studies 3/4 ([1]; tablet formulation 2, oral): 0.441 h⁻¹
- VP/F: typical volume of distribution of the peripheral compartment [2]: 1,650 L
- tolerability of a single dose [3]: well tolerated

From article PMC4486092 (Clinical Pharmacokinetics, 2015)
